Test results published in patent US7879887B2, “α-amino acid derivatives and medicaments containing the same as an active ingredient” (Nissan Chemical Industries, Ltd., priority 2006, dated 2011).

Columns and labels:
leukemia cell line KG-1a = assay: Cell proliferation inhibitory activity, KG-1a; type: cell-based; conditions: cells counted 4 days later with Cell Counting Kit-8
Procedure: (§1) Evaluations were carried out using colon carcinoma cell line SW620 (Cat. No. CCL-227), lung carcinoma cell line NCI-H460 (Cat. No. HTB-177), prostate cancer cell line DU 145 (Cat. No. HTB-81), breast cancer cell line MDA-MB-231 (Cat. No. HTB26) and leukemia cell line KG-1a (Cat. No. CCL-246.1) purchased from ATCC, pancreatic cancer cell line MIAPaCa-2 (Cat. No. CRL-1420) purchased from Dainippon Pharmaceutical, and ovarian cancer cell line IGROV1 received from the Netherland Cancer Institute. The cells were cultured under the conditions recommended by the supplier for each cell line, or with respect to IGROV1, according to the method described in Cancer Res. 59: 4559-4563, 1999. Cells suspended in media were added to solutions containing the test substances at various concentrations followed by culturing in a 5% CO2 incubator at 37° C. The numbers of cells were counted 4 days later with the Cell Counting Kit-8. IC50 values were calculated by assigning measured values in the case of not containing a test substance to an inhibition of 0%, and assigning measured values in the case of not containing a test substance or cells to an inhibition of 100%.

[1] = system: colon carcinoma cell line SW620; assay: Cell proliferation inhibitory activity, SW620; type: cell-based, human; conditions: cells counted 4 days later with Cell Counting Kit-8
Procedure: as §1

[2] = system: ovarian cancer cell line IGROV1; assay: Cell proliferation inhibitory activity, IGROV1; type: cell-based; conditions: cells counted 4 days later with Cell Counting Kit-8
Procedure: as §1

CDK3/Cyclin E complex = target: T1, CDK3/Cyclin E complex (Homo sapiens, UniProt Q00526); assay: In vitro kinase assay, CDK3/Cyclin E complex; type: biochemical; conditions: recombinant protein (Upstate); read-out: CDK3/cyclinE IC50
T1 construct: purchased Upstate Inc. 14-487
T1 sequence (Q00526 whole entry): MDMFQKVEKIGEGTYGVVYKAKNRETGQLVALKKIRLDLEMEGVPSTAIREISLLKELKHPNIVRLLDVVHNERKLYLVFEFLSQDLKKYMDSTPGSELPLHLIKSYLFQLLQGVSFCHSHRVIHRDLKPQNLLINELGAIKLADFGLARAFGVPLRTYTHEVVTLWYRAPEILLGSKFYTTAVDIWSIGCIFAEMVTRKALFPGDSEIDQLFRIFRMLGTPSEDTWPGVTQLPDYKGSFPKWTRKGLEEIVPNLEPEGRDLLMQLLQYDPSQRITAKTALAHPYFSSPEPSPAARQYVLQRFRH
T1 sequence (P24864 whole entry partner): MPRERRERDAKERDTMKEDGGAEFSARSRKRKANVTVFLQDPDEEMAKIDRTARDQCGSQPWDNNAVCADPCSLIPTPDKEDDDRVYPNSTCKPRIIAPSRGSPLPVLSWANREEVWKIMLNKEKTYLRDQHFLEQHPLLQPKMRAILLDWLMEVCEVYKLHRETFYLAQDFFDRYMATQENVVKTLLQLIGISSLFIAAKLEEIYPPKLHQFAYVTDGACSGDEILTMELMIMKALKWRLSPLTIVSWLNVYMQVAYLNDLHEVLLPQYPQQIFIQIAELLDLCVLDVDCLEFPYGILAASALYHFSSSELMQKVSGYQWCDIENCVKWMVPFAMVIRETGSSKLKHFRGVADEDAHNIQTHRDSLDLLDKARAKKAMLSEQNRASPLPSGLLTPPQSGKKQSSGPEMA
Procedure: (§2) Inhibitory activity against Aurora A, CDK1/Cyclin B complex, CDK2/Cyclin E complex and CDK3/Cyclin E complex were measured by in vitro kinase assay using recombinant proteins.

CDK2/Cyclin E complex = CDK2/Cyclin E complex (Homo sapiens, UniProt P24941); assay: In vitro kinase assay, CDK2/Cyclin E complex; type: biochemical; conditions: recombinant protein (Upstate); read-out: CDK2/cyclinE IC50
Procedure: as §2

[3] = system: breast cancer cell line MDA-MB-231; assay: Cell proliferation inhibitory activity, MDA-MB-231; type: cell-based; conditions: cells counted 4 days later with Cell Counting Kit-8
Procedure: as §1

Aurora A = target: T2, Aurora A (Homo sapiens, UniProt O14965); assay: In vitro kinase assay, Aurora A; type: biochemical; conditions: recombinant protein (Upstate)
T2 construct: purchased Upstate Inc. 14-511
T2 sequence (O14965 1-403): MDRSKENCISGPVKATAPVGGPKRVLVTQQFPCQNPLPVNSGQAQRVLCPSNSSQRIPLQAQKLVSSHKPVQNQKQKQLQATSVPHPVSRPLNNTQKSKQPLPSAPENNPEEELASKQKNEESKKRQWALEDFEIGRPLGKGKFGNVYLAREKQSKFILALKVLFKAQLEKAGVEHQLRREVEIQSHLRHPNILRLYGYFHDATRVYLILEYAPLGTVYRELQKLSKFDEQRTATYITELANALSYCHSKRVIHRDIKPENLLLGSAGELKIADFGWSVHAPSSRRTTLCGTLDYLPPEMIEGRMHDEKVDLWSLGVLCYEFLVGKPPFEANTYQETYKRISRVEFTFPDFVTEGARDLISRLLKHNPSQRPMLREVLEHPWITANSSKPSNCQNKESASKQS
Procedure: (§3) Inhibitory activity against Aurora A, CDK1/Cyclin B complex, CDK2/Cyclin E complex and CDK3/Cyclin E complex were measured by in vitro kinase assay using recombinant proteins. The assays were carried out by using recombinant proteins (Upstate Inc.) for Aurora A, CDK1/Cyclin B complex, CDK2/Cyclin E complex and CDK3/Cyclin E complex (respective cat. nos. 14-511, 14-450, 14-448 and 14-487), in accordance with the procedure described in the product instructions thereof. The 50% inhibitory concentrations (IC50 values) were calculated by assigning measured values in the case of not containing a test compound to an inhibition of 0%, and assigning measured values in the case of not containing a test compound and enzyme to an inhibition of 100%.

[4] = system: prostate cancer cell line DU 145; assay: Cell proliferation inhibitory activity, DU 145; type: cell-based, human; conditions: cells counted 4 days later with Cell Counting Kit-8
Procedure: as §1

[5] = system: lung carcinoma cell line NCI-H460; assay: Cell proliferation inhibitory activity, NCI-H460; type: cell-based; conditions: cells counted 4 days later with Cell Counting Kit-8
Procedure: as §1

CDK1/Cyclin B complex = target: T3, CDK1/Cyclin B complex (Homo sapiens, UniProt P06493); assay: In vitro kinase assay, CDK1/Cyclin B complex; type: biochemical; conditions: recombinant protein (Upstate)
T3 construct: purchased Upstate Inc. 14-450
T3 sequence (P06493 whole entry): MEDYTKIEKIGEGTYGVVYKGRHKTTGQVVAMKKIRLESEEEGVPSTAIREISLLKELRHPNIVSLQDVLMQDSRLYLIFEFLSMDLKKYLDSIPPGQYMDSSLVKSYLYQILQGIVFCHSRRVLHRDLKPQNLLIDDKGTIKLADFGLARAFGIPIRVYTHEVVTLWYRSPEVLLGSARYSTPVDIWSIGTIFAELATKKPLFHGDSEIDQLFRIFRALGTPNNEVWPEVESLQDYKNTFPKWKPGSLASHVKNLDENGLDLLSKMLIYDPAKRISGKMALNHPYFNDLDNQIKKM
T3 sequence (P14635 whole entry partner): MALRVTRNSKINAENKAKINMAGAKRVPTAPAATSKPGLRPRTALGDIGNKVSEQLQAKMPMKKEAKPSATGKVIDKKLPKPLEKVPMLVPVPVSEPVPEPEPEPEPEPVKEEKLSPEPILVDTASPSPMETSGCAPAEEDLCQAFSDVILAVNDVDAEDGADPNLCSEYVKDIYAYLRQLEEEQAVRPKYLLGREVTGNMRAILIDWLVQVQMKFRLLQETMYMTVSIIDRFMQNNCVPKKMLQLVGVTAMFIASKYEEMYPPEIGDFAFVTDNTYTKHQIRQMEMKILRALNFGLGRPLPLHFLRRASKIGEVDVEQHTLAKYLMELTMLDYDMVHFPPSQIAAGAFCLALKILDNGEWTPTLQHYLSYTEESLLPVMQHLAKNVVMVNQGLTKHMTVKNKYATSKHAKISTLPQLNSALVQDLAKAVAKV
Procedure: as §3

SMILES	IC50 (leukemia cell line KG-1a)	IC50 [1]	IC50 [2]	IC50 (leukemia cell line KG-1a; Homo sapiens, 96 h)	IC50 (CDK3/Cyclin E complex)	IC50 ([1]; Homo sapiens, SW-620, 96 h)	IC50 ([2]; Homo sapiens, IGROV-1, 96 h)	IC50 (CDK2/Cyclin E complex)	IC50 ([3]; Homo sapiens, 96 h)	IC50 (Aurora A)	IC50 ([4]; Homo sapiens, 96 h)	IC50 ([5]; Homo sapiens, 96 h)	IC50 (CDK1/Cyclin B complex)	IC50 [4]	IC50 [5]	IC50 [3]
COc1cccc(NCC(=O)Nc2nc3ccc4[nH]ncc4c3s2)c1 [compound 1]	< 100 nM	1600 nM	4600 nM													
O=C(CNc1cccc(F)c1)Nc1nc2ccc3[nH]ncc3c2s1 [compound 3]				100 nM	391 nM	1700 nM	4900 nM	199 nM	4700 nM							
Nc1cccc(NCC(=O)Nc2nc3ccc4[nH]ncc4c3s2)c1 [compound 11]				< 100 nM	355 nM	1600 nM	4800 nM	192 nM								
COC(=O)Nc1cc(NC(C)(C)C(=O)Nc2nc3ccc4[nH]ncc4c3s2)ccc1Cl [compound 50]				< 100 nM		2500 nM	4800 nM	435 nM		426 nM						
CC(C)(Nc1ccc(Cl)c(NS(C)(=O)=O)c1)C(=O)Nc1nc2c(C(F)(F)F)cc3[nH]ncc3c2s1 [compound 84]				200 nM	44 nM	1600 nM		44 nM	4800 nM	247 nM	3400 nM	3200 nM	205 nM			
CNC(=O)Nc1cc(NC(C)(C)C(=O)Nc2nc3c(C(F)(F)F)cc4[nH]ncc4c3s2)ccc1Cl [compound 90]					70 nM	1300 nM		160 nM	4400 nM		1900 nM	2500 nM	365 nM			
CC(C)(Nc1ccc(Cl)c(OCCCS(N)(=O)=O)c1)C(=O)Nc1nc2c(C(F)(F)F)cc3[nH]ncc3c2s1 [compound 94]		1800 nM	4500 nM											4200 nM	2000 nM	2800 nM
O=C(CNc1ccccc1)Nc1nc2ccc3[nH]ncc3c2s1 [compound 104]				< 100 nM	395 nM	1000 nM	4700 nM	412 nM	4900 nM							
O=C(Nc1nc2ccc3[nH]ncc3c2s1)C1(Nc2ccc(Cl)cc2)CCC1 [compound 114]				< 100 nM	174 nM	700 nM		83 nM	4700 nM							
O=C(Nc1nc2ccc3[nH]ncc3c2s1)C1(Nc2ccc(Cl)cc2)CCCC1 [compound 115]				< 100 nM	217 nM	700 nM	4800 nM	154 nM	3900 nM		3200 nM					
O=C(Nc1nc2ccc3[nH]ncc3c2s1)C1(Nc2ccc(Cl)cc2)CCCCC1 [compound 116]				200 nM	412 nM	1000 nM	4900 nM	245 nM			3400 nM		486 nM			
O=C(Nc1nc2ccc3[nH]ncc3c2s1)C1(Nc2cccc(O)c2)CC1 [compound 122]				< 100 nM	63 nM	1100 nM	4900 nM	56 nM	3100 nM	168 nM	4500 nM	4000 nM	197 nM			
